Experimental data: US20210332001A1, “SYNTHESIS AND ANTI-TUMOR ACTIVITIES OF ACYL-PARA-AMINOPHENOL DERIVATIVES” (Montefiore Medical Center, priority 2018, published 2021)

What was measured:
[1] = system: U87MG cells, stage IV astrocytoma; assay: U87MG cell survival (presto blue), 48 hours post treatment; type: cell-based
Method: (§1) FIG. 1. U87MG cells, stage IV astrocytoma obtained from ATCC, were tested against APAP and its derivatives at various concentrations with 0.2% DMSO as a vehicle. Cells were seeded at 3500 cells and allowed 48 hours to stabilize before treatment. Drugs were administered and data for cell survival, using presto blue, were analyzed at 48 hours post treatment.
as §1, with “U87MG” for “FIG. 1. U87MG”, “concentration” for “concentrations”, “vehicle (FIG. 1).” for “vehicle.”

[2] = system: differentiated neuronal cell line HCN-2; assay: Toxicity on differentiated neuronal cell line HCN-2; type: cell-based, human; conditions: HCN-2 differentiated 12 days; for reduction (non-significant): highest soluble concentration, not a significant reduction
Method: FIG. 3. The compounds were tested on a differentiated neuronal cell line (9) HCN-2, obtained from ATCC. Cells were seeded at 5,000 cells per well using a low passage, second passage of cells to ensure cell stability. Cells were then subjected to induced differentiation, at 72 hours, with a differentiating concoction composed of 25 ng/mL NGF-beta-human, 0.05 mM dibutyryl cAMP and 0.5 mM IBMX in 10% DMEM, all differentiating factors were obtained from Sigma Aldrich (9). Cells were treated with differentiating factor for 12 days to ensure that cells differentiated into neuronal cells. On the twelfth day, cells were treated with and without drugs at the highest soluble concentration to determine the activity of the compounds on neuronal cells.
The compounds were also tested on a differentiated neuronal cell line, HCN-2, obtained from ATCC (FIG. 3).

[3] = system: T-cell lymphoma cells line (Jurkat cells); assay: Jurkat T-cell lymphoma cell survival (presto blue), 48 hours post treatment; type: cell-based
Method: FIG. 2. The compounds were tested against T-cell lymphoma cells line (Jurkat cells) obtained from ATCC and were tested against APAP and its derivatives at various concentrations with 0.2% DMSO as a vehicle. Free flowing cells were seeded at 3500 cells and allowed 48 hours to stabilize before treatment. Drugs were administered to both seeded wells and wells that that were designated blank, without cells. This additional step was added in order to account for the effects of the drugs on the reagent used for analysis. Data for cell survival, using presto blue, was analyzed at 48 hours post treatment.
The effects of the drugs on lymphoma cells were tested on Jurkat cells, as described above and in FIG. 2.

malignant astrocytes = conditions: cell culture method, Casper et al. (6); cited from earlier work

## CCCCCC(=O)Nc1ccc(O)cc1 [PL6, N-(4-hydroxyphenyl)hexanamide]
other
  melting point: 110 °C

## CCCCCCC(=O)Nc1ccc(O)cc1 [PL7, N-(4-hydroxyphenyl)heptanamide]
[1]; 0.5 mM
  activity (cell survival) in words: greatest activity
[2]; highest concentration 0.5 mM
  toxicity on neuronal cells: toxicity
other
  melting point: 109 °C

## O=C(Nc1ccc(O)cc1)c1ccccc1 [PL5B, N-(4-hydroxyphenyl)benzamide]
other
  melting point: 217 to 218 °C

## CCCCCCCCCCCC(=O)Nc1ccc(O)cc1 [PL12, N-(4-hydroxyphenyl)dodecanamide]
other
  melting point: 128 °C

## CC(C)C(=O)Nc1ccc(O)cc1 [PL4, N-(4-hydroxyphenyl)-2-methylpropanamide]
other
  melting point: 160 to 162 °C

## CCCCCCCCCC(=O)Nc1ccc(O)cc1 [PL10, N-(4-hydroxyphenyl)decanamide]
[3]; 0.125 mM
  activity when compared to APAP: greatest activity
[2]
  reduction (non-significant): 35.6%
other
  melting point: 124 °C

## CC(=O)Nc1ccc(O)cc1 [APAP, N-(4-Hydroxyphenyl)acetamide, reference compound]
Malignant astrocytes
  ability to reduce the growth of malignant astrocytes: only mild
[3]; 2 mM
  reduction in cell growth as compared to control 0.2% DMSO: 16%
[1]; 2 mM
  reduction in cell growth as compared to control 0.2% DMSO: 36%

## CCCCCCCCCCCCCCCC(=O)Nc1ccc(O)cc1 [PL16, N-(4-Hydroxyphenyl)hexadecanamide]
other
  melting point: 131 °C

## CCCCCCCCC(=O)Nc1ccc(O)cc1 [PL9, N-(4-hydroxyphenyl)nonanamide]
[2]; highest concentration 0.25 mM
  toxicity on neuronal cells: toxicity
other
  melting point: 119 °C

## O=C(Nc1ccc(O)cc1)c1ccc2ccccc2c1 [PL11]
[1]; 0.25 mM
  reduction in cell growth: 87.5%
[2]
  reduction (non-significant): 35.6%

## CCCCCCCC(=O)Nc1ccc(O)cc1 [PL8, N-(4-hydroxyphenyl)octanamide]
[1]; 0.25 mM
  activity (cell survival) in words: greatest activity
[2]; highest concentration 0.5 mM
  toxicity on neuronal cells: toxicity
other
  melting point: 120 °C
